This is an account of results in patent US20130345215A1, “PYRAZOLOPYRIMIDONE AND PYRAZOLOPYRIDONE INHIBITORS OF TANKYRASE” (Genentech, Inc., priority 2012, published 2013).

Like-named read-outs stand apart in the source and are kept apart here.

One test addresses T1, tankyrase 2 (TNKS2) (Homo sapiens, UniProt Q9H2K2).
T1 construct: His6-tankyrase 2 (construct: 934-1166) (His6-TNKS2)
Briefly: μHTS-TNKS-IWR2 TR-FRET Binding Assay (Example 118), His6-TNKS2 substituted. Conditions: procedure in Example 118 with His6-TNKS2. The method, then: (§1) μHTS-TNKS-IWR2 TR-FRET Binding Assay (10 μL/well in BD1536-well plate, a single point)
(§2) Reagents and Stock Solutions
Tankyrase 1 (TNKS1): 184.3 μM=5.2 mg/mL His6-TNKS1, MW=28.2 KDa (construct: 1088-1327, 1266M) in 20 mM Tris pH 8, 150 mM NaCl, 10% glycerol, and 0.5 mM TCEP. Alternatively, His6-tankyrase 2 (construct: 934-1166) (His6-TNKS2) or His6-PARP1 (full length) can be substituted for His6-TNKS 1.
(§3) Biotin-4-((1S,2R,6S,7R)-3,5-Dioxo-4-aza-tricyclo[5.2.1.0*2,6]dec-8-en-4-yl)-N-(4-methyl-quinolin-8-yl)-benzamide (Biotin-IWR2): 10 mM Biotin-IWR2 stock in DMSO, stored at −20° C.
Positive control: 10 mM 2-(4-Trifluoromethyl-phenyl)-3,5,7,8-tetrahydro-thiopyrano[4,3-d]pyrimidin-4-one (XAV939) in DMSO, stored at −20° C.
APC-anti-His Ab: 8.50 μM SL-APC, 8.26 μM anti-6His antibody-SureLight APC (Columia Bioscience, Catalog Number D3-1711, Lot Number N01010-AAH04)
Assay plate: BD 1536-well, clear/black plate (Catalog Number 353255)
(§4) Assay buffer 1a (AB1a) for TNKS dilution: 50 mM Tris, pH 7.4, 100 mM sodium chloride solution, 1 mM magnesium chloride solution, 1 mM DL-dithiothreitol solution, 0.2 mg/mL bovine serum albumin solution, 0.025% NP-40.
(§5) Assay buffer 1b (AB1b) for Biotin-IWR2 dilution: 50 mM Tris, pH 7.4, 100 mM sodium chloride solution, 1 mM magnesium chloride solution, 1 mM DL-dithiothreitol solution, 0.2 mg/mL bovine serum albumin solution, 0.05% NP-40
(§6) Assay buffer 1c (AB1c) for compound dilution: 50 mM Tris, pH 7.4, 100 mM sodium chloride solution, 1 mM magnesium chloride solution, 1 mM DL-dithiothreitol solution, 0.2 mg/mL bovine serum albumin solution
(§7) Assay buffer 2 (AB2) for Eu/APC: 50 mM Tris, pH 7.4, 100 mM sodium chloride solution, 1 mM magnesium chloride solution, 0.2 mg/mL bovine serum albumin solution
(§8) Reagent Stock Solution Preparation
Prepare Biotinylated IWR2 stock solution (3.33× stock) for TOTL and compound wells: 200 nM Biotin-IWR2 in 5% DMSO/AB1b buffer
(§9) Prepare BLANK well stock solution: 5% DMSO/AB1b buffer
Prepare POSITIVE CONTROL well stock solution (3.33× stock): 200 nM XAV939 in 200 nM Biotin-IWR2/5% DMSO/AB1b buffer
(§10) Prepare TNKS 1 stock solution (5× stock): 300 nM TNKS in AB1a buffer. (Alternatively, use TNKS2 or PARP1 stock solutions.)
Prepare Eu/APC stock solution (5× stock): 3.5 nM Eu-SA/50 nM APC-His6Ab in AB2 buffer.
Add 25 μL/well 1.5% DMSO/AB1c buffer in each compound well to the compound concentration at 74 μM in 8.8% DMSO/AB1c buffer or in the 2 μL DMSO CONTROL wells (BLANK, TOTAL and POSITIVE wells) in the compound plate. Transfer 3 μL/well of above solution (solution 1,2,3) to an empty assay plate (BD1536-well plate) as follows: • TOTAL and cpd wells: Solution 1 (Biotin-IWR2): • BLANK wells: Solution 2 (No Biotin-IWR2): • POSITIVE CONTROL wells: Solution 3 (Biotin-IWR2+XAV939)
Transfer 3 μL/well of the above diluted compound solutions or compound dilution buffer to the above assay plate. Add 2 μL/well of 300 nM TNKS stock solution (4) to every well in the above assay plate. Centrifuge the assay plate at 2100 rpm for 2 min. Incubate the assay plate at 26° C. for 30 minutes. Add 2 μL/well 3.5 nMEu/50 nM APC solution (5) to every well in the above assay plate. Centrifuge the assay plate at 2100 rpm for 2 min. Incubate the assay plate at 26° C. for 60 min. Read the assay plate immediately at excitation wavelength of 330 nm and emission wavelength of […] in time resolved fluorescence mode.
XAV939 (+ve control): 60 nM at ˜70% Inhibition
General Library compounds: 22.23 μM in 4% DMSO
Background: TR-FRET usually uses a lanthanide donor and a delayed reading to cut background.

The target in the next test is T2, Tankyrase 1 (TNKS1) (Homo sapiens, UniProt O95271).
T2 construct: His6-TNKS1, MW=28.2 KDa (construct: 1088-1327, 1266M)
Briefly: μHTS-TNKS-IWR2 TR-FRET Binding Assay (Example 118), His6-TNKS1. The method, then: as §1, §2, §3
(XAV939) in DMSO, stored at −20° C.
as §4, §5, §6, §7, §8, §9, §10
Transfer 3 μL/well of above solution (solution 1,2,3) to an empty assay plate (BD1536-well plate) as follows: • TOTAL and cpd wells: Solution 1 (Biotin-IWR2): • BLANK wells: Solution 2 (No Biotin-IWR2): • POSITIVE CONTROL wells: Solution 3 (Biotin-IWR2+XAV939)
Transfer 3 μL/well of the above diluted compound solutions or compound dilution buffer to the above assay plate. Add 2 μL/well of 300 nM TNKS stock solution (4) to every well in the above assay plate. Centrifuge the assay plate at 2100 rpm for 2 min. Incubate the assay plate at 26° C. for 30 minutes. Add 2 μL/well 3.5 nMEu/50 nM APC solution (5) to every well in the above assay plate. Centrifuge the assay plate at 2100 rpm for 2 min. Incubate the assay plate at 26° C. for 60 min.

Where [1] appears, read: Compounds I-1 to I-58, procedure in Example 118 (TR-FRET, Biotin-IWR2 60 nM, TNKS 60 nM), read-out: TNKS1 (IC50).

T2 sequence (O95271 1088-1327): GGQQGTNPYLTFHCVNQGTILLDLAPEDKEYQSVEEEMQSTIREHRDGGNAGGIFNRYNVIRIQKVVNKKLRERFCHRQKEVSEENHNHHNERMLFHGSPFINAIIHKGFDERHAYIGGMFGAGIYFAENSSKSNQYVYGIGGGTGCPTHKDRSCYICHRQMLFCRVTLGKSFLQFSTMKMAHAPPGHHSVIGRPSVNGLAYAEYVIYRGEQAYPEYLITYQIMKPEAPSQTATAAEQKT
T1 sequence (Q9H2K2 934-1166): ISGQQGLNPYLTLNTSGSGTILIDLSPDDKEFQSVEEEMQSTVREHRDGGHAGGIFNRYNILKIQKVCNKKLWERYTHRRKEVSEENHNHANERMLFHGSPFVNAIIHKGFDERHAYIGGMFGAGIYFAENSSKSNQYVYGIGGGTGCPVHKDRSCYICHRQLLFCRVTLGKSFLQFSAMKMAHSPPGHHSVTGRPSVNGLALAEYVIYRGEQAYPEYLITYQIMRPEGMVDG

As a reminder, the IC50 is the concentration needed to halve the response being measured. Regarding “6-[4-(2- fluorophenyl)piperazin-1- yl]-1-methyl-5H- pyrazolo[4 3-c]pyridin-4- one [Compound I-7]”, the IC50 at tankyrase 2 (TNKS2) is 0.0412 µM; at Tankyrase 1 (TNKS1) (setting [1]), 0.046 µM. Taken in the same sequence, the figures for “6-[4-(3 5-dichloro-4- pyridyl)piperazin-1-yl]-1- methyl-5H-pyrazolo[4 3- c]pyridin-4-one [Compound I-47]” were 0.0291 µM and 0.026 µM. For “6-[4-(4-fluorophenyl)-1- piperidyl]-1-methyl-5H- pyrazolo[4 3-c]pyridin-4- one [Compound I-8]”, the IC50 at tankyrase 2 (TNKS2) is 0.0428 µM; on Tankyrase 1 (TNKS1) (setting [1]), 0.042 µM. In the case of `COCCOc1cc(F)c(N2CCN(c3nc4c(cnn4C)c(=O)[nH]3)CC2)c(F)c1` [Compound I-1, 6-[4-[2 6-difluoro-4-(2-methoxyethoxy)phenyl]piperazin-1-yl]-1-methyl-5H-pyrazolo[3 4-d]pyrimidin-4-one], the IC50 on tankyrase 2 (TNKS2) amounted to 0.0244 µM; on Tankyrase 1 (TNKS1), 0.0076 µM. The matching figures for `Cn1ncc2c(=O)[nH]c(N3CCN(c4c(F)cccc4F)CC3)nc21` [Compound I-2, 6-[4-(2 6-difluorophenyl)piperazin-1-yl]-1-methyl-5H-pyrazolo[3 4-d]pyrimidin-4-one]: 0.0187 µM and 0.0109 µM. The matching figures for `Cn1ncc2c(=O)[nH]c(N3CCN(c4ccccc4F)CC3)nc21` [Compound I-3, 6-[4-(2-fluorophenyl)piperazin-1-yl]-1-methyl-5H-pyrazolo[3 4-d]pyrimidin-4-one]: 0.0344 µM and 0.027 µM. `Cn1ncc2c(=O)[nH]c(-c3ccc(C(F)(F)F)cc3)nc21` [Compound I-4, 1-methyl-6-[4-(trifluoromethyl)phenyl]-5H-pyrazolo[3 4-d]pyrimidin-4-one]: the IC50 at tankyrase 2 (TNKS2) is 0.0345 µM; at Tankyrase 1 (TNKS1), 0.025 µM.

In the case of `Cn1ncc2c(=O)[nH]c(N3CCC(c4ccc(F)cc4)CC3)nc21` [Compound I-5, 6-[4-(4-fluorophenyl)-1-piperidyl]-1-methyl-5H-pyrazolo[3 4-d]pyrimidin-4-one], the results for the IC50 at tankyrase 2 (TNKS2) and at Tankyrase 1 (TNKS1) were 0.0376 µM and 0.031 µM, respectively. The matching figures for `Cn1ncc2c(=O)[nH]c(N3CCC(c4ccc(C(F)(F)F)cc4)CC3)nc21` [Compound I-6, 1-methyl-6-[4-[4-(trifluoromethyl)phenyl]-1-piperidyl]-5H-pyrazolo[3 4-d]pyrimidin-4-one]: 0.0683 µM and 0.066 µM. The matching figures for `O=c1[nH]c(N2CCC(c3ccc(F)cc3)CC2)nc2[nH]ncc12` [Compound I-9, 6-[4-(4-fluorophenyl)-1-piperidyl]-1 5-dihydropyrazolo[3 4-d]pyrimidin-4-one]: 0.664 µM and 0.374 µM.

As for `O=c1[nH]c(N2CCN(c3ccccc3F)CC2)nc2[nH]ncc12` [Compound I-10, 6-[4-(2-fluorophenyl)piperazin-1-yl]-1 5-dihydropyrazolo[3 4-d]pyrimidin-4-one], the IC50 turned out to be 0.376 µM at tankyrase 2 (TNKS2) and 0.147 µM on Tankyrase 1 (TNKS1). Regarding `O=c1[nH]c(N2CCC(c3ccc(F)cc3)CC2)cc2[nH]ncc12` [Compound I-11, 6-[4-(4-fluorophenyl)-1-piperidyl]-1 5-dihydropyrazolo[4 3-c]pyridin-4-one], the IC50 was 0.159 µM on tankyrase 2 (TNKS2) and 0.108 µM on Tankyrase 1 (TNKS1). `O=c1[nH]c(N2CCN(c3ccccc3F)CC2)cc2[nH]ncc12` [Compound I-12, 6-[4-(2-fluorophenyl)piperazin-1-yl]-1 5-dihydropyrazolo[4 3-c]pyridin-4-one]: the IC50 at tankyrase 2 (TNKS2) was determined as 0.176 µM; on Tankyrase 1 (TNKS1) it was 0.105 µM. As for `Cn1ncc2c(=O)[nH]c(-c3ccc(C(F)(F)F)cc3)cc21` [Compound I-13, 1-methyl-6-[4-(trifluoromethyl)phenyl]-5H-pyrazolo[4 3-c]pyridin-4-one], the IC50 at tankyrase 2 (TNKS2) is 0.0325 µM; at Tankyrase 1 (TNKS1), 0.032 µM. For `Cn1ncc2c(=O)[nH]c(N3CCN(c4ccc(F)cc4F)CC3)nc21` [Compound I-14, 6-[4-(2 4-difluorophenyl)piperazin-1-yl]-1-methyl-5H-pyrazolo[3 4-d]pyrimidin-4-one], the IC50 on tankyrase 2 (TNKS2) was 0.0471 µM; on Tankyrase 1 (TNKS1), 0.039 µM. With `Cn1ncc2c(=O)[nH]c(N3CCN(c4ccccc4C#N)CC3)nc21` [Compound I-15, 2-[4-(1-methyl-4-oxo-5H-pyrazolo[3 4-d]pyrimidin-6-yl)piperazin-1-yl]benzonitrile], the IC50 is 0.0952 µM at tankyrase 2 (TNKS2) and 0.074 µM at Tankyrase 1 (TNKS1). As for `Cn1ncc2c(=O)[nH]c(N3CCN(c4ccc(F)cc4F)CC3)cc21` [Compound I-16, 6-[4-(2 4-difluorophenyl)piperazin-1-yl]-1-methyl-5H-pyrazolo[4 3-c]pyridin-4-one], the IC50 at tankyrase 2 (TNKS2) stood at 0.0474 µM; on Tankyrase 1 (TNKS1), 0.048 µM. The matching figures for `Cn1ncc2c(=O)[nH]c(N3CCN(c4ccccc4C#N)CC3)cc21` [Compound I-17, 2-[4-(1-methyl-4-oxo-5H-pyrazolo[4 3-c]pyridin-6-yl)piperazin-1-yl]benzonitrile]: 0.097 µM and 0.103 µM. Taken in the same sequence, the figures for `Cn1ncc2c(=O)[nH]c(N3CCN(c4ncccc4C#N)CC3)nc21` [Compound I-18, 2-[4-(1-methyl-4-oxo-5H-pyrazolo[3 4-d]pyrimidin-6-yl)piperazin-1-yl]pyridine-3-carbonitrile] were 0.228 µM and 0.15 µM. The matching figures for `Cn1ncc2c(=O)[nH]c(N3CCN(c4ccccc4C(F)(F)F)CC3)nc21` [Compound I-19, 1-methyl-6-[4-[2-(trifluoromethyl)phenyl]piperazin-1-yl]-5H-pyrazolo[3 4-d]pyrimidin-4-one]: 0.0326 µM and 0.027 µM. Turning to `Cn1ncc2c(=O)[nH]c(N3CCN(c4ncccc4C(F)(F)F)CC3)nc21` [Compound I-20, 1-methyl-6-[4-[3-(trifluoromethyl)-2-pyridyl]piperazin-1-yl]-5H-pyrazolo[3 4-d]pyrimidin-4-one], the IC50 was 0.0432 µM on tankyrase 2 (TNKS2) and 0.031 µM at Tankyrase 1 (TNKS1). Compound `COCCOc1cc(F)c(F)c(N2CCN(c3nc4c(cnn4C)c(=O)[nH]3)CC2)c1` [Compound I-58] registered an IC50 on tankyrase 2 (TNKS2) of 0.0471 µM.
